How the values were obtained:
IL-2 = assay: T cell specific stimulation of PBMC (CD3/CD28 beads), IL-2 ELISA; type: cell-based, human; conditions: for IL-2 Conc: CD3/CD28 beads
Description: (§1) PBMC were isolated from blood of two healthy volunteers (person) via Ficoll density gradient centrifugation. The purified cells were used in parallel cultures for monocyte stimulations using Lipopolysaccharide (LPS) and T cell specific stimulations using bead-coupled antibodies directed against the T cell activation antigens CD3 and CD28.
(§2) Cultures were incubated in a tissue culture incubator at 37° C., 5% CO2 for 20 h, culture supernatants were harvested at the end of the culture period and used for cytokine quantitation. The measured cytokines in cell culture supernatants from either monocyte stimulation cultures (IL-8, IL-10, TNF-α) or T cell stimulation cultures (IL-2, IL-4) were quantitated with ELISAs (Becton Dickinson) according to the manufacturers instructions. The resulting optical density (OD) was measured on a Packard Fusion Reader and OD values were translated to cytokine concentrations (in pg/ml) with the use of the Fusion Reader Data Analysis Software.

IL-4 = assay: T cell specific stimulation of PBMC (CD3/CD28 beads), IL-4 ELISA; type: cell-based, human; conditions: for IL-4 Conc: CD3/CD28 beads
Description: as §1, §2

TNF-alpha = assay: Monocyte stimulation cultures of PBMC (LPS or unstimulated), TNF-alpha ELISA; type: cell-based, human
Description: as §1, §2

[1] = pH-value of the solution on dissolving in water; type: physicochemical; conditions: dissolved in water
Description: When strontium monomethyl fumarate is dissolved in water, the pH-value of the solution raises to alkaline values (pH˜9-10), owing to production of hydroxyl ions: Sr(C5H5O4)2+2H2O→Sr^2+(aq)+2C5H6O4(aq)+2OH^−(aq) (2)

IL-8 = assay: Monocyte stimulation cultures of PBMC (LPS or unstimulated), IL-8 ELISA
IL-10 = assay: Monocyte stimulation cultures of PBMC (LPS or unstimulated), IL-10 ELISA
[2] = LPS 1 ng/ml, 10 μM MMF, Donor 1
[3] = LPS 1 ng/ml, 10 μM MMF, Donor 2
[4] = LPS 1 ng/ml, 30 μM MMF, Donor 1
[5] = LPS 1 ng/ml, 30 μM MMF, Donor 2
[6] = LPS 1 ng/ml, 100 μM MMF, Donor 1
[7] = LPS 1 ng/ml, 100 μM MMF, Donor 2
[8] = LPS 1 ng/ml, 300 μM MMF, Donor 1
[9] = LPS 1 ng/ml, 300 μM MMF, Donor 2
[10] = as single stimulant (unstimulated monocytes)
[11] = no LPS printed for these rows, 1 μM MMF, Donor 1
[12] = no LPS printed for these rows, 1 μM MMF, Donor 2
[13] = no LPS printed for these rows, 3 μM MMF, Donor 1
[14] = no LPS printed for these rows, 3 μM MMF, Donor 2
[15] = no LPS printed for these rows, 10 μM MMF, Donor 1
[16] = no LPS printed for these rows, 10 μM MMF, Donor 2
[17] = no LPS printed for these rows, 30 μM MMF, Donor 1
[18] = no LPS printed for these rows, 30 μM MMF, Donor 2
[19] = no LPS printed for these rows, 100 μM MMF, Donor 1
[20] = no LPS printed for these rows, 100 μM MMF, Donor 2
[21] = no LPS printed for these rows, 300 μM MMF, Donor 1
[22] = no LPS printed for these rows, 300 μM MMF, Donor 2
[23] = no LPS printed for these rows, 1 mM MMF, Donor 1
[24] = no LPS printed for these rows, 1 mM MMF, Donor 2
[25] = no LPS printed for these rows, 3 mM MMF, Donor 1
[26] = no LPS printed for these rows, 3 mM MMF, Donor 2

Substance: di-strontium-tetrakis-(mono methyl fumarate)-tetra hydrate [strontium MMF]
- IL-2 Conc (IL-2; 1 μM MMF, Donor 1): 5787 pg/mL
- IL-2 Conc (IL-2; 1 μM MMF, Donor 2): 2559 pg/mL
- IL-2 Conc (IL-2; 3 μM MMF, Donor 1): 4699 pg/mL
- IL-2 Conc (IL-2; 3 μM MMF, Donor 2): 1754 pg/mL
- IL-2 Conc (IL-2; 10 μM MMF, Donor 1): 5901 pg/mL
- IL-2 Conc (IL-2; 10 μM MMF, Donor 2): 1905 pg/mL
- IL-2 Conc (IL-2; 30 μM MMF, Donor 1): 4592 pg/mL
- IL-2 Conc (IL-2; 30 μM MMF, Donor 2): 2079 pg/mL
- IL-2 Conc (IL-2; 100 μM MMF, Donor 1): 170 pg/mL
- IL-2 Conc (IL-2; 100 μM MMF, Donor 2): 65 pg/mL
- IL-2 Conc (IL-2; 300 μM MMF, Donor 1): 2 pg/mL
- IL-2 Conc (IL-2; 300 μM MMF, Donor 2): 0 pg/mL
- IL-2 Conc (IL-2; 1 mM MMF, Donor 1): 0 pg/mL
- IL-2 Conc (IL-2; 1 mM MMF, Donor 2): 1 pg/mL
- IL-2 Conc (IL-2; 3 mM MMF, Donor 1): 1 pg/mL
- IL-2 Conc (IL-2; 3 mM MMF, Donor 2): 3 pg/mL
- effect on IL-2 secretion (IL-2; after T-cell stimulation): co-induction
- IL-4 Conc (IL-4; 1 μM MMF, Donor 1): 60 pg/mL
- IL-4 Conc (IL-4; 1 μM MMF, Donor 2): 12 pg/mL
- IL-4 Conc (IL-4; 3 μM MMF, Donor 1): 70 pg/mL
- IL-4 Conc (IL-4; 3 μM MMF, Donor 2): 10 pg/mL
- IL-4 Conc (IL-4; 10 μM MMF, Donor 1): 69 pg/mL
- IL-4 Conc (IL-4; 10 μM MMF, Donor 2): 12 pg/mL
- IL-4 Conc (IL-4; 30 μM MMF, Donor 1): 92 pg/mL
- IL-4 Conc (IL-4; 30 μM MMF, Donor 2): 20 pg/mL
- IL-4 Conc (IL-4; 100 μM MMF, Donor 1): 3 pg/mL
- IL-4 Conc (IL-4; 100 μM MMF, Donor 2): 0 pg/mL
- IL-4 Conc (IL-4; 300 μM MMF, Donor 1): 0 pg/mL
- IL-4 Conc (IL-4; 300 μM MMF, Donor 2): 0 pg/mL
- IL-4 Conc (IL-4; 1 mM MMF, Donor 1): 0 pg/mL
- IL-4 Conc (IL-4; 1 mM MMF, Donor 2): 0 pg/mL
- IL-4 Conc (IL-4; 3 mM MMF, Donor 1): 0 pg/mL
- IL-4 Conc (IL-4; 3 mM MMF, Donor 2): 0 pg/mL
- effect on IL-4 secretion (IL-4; after T-cell stimulation): co-induction
- TNF-alpha Conc (TNF-alpha; LPS 1 ng/ml, 1 μM MMF, Donor 1): 464 pg/mL
- TNF-alpha Conc (TNF-alpha; LPS 1 ng/ml, 1 μM MMF, Donor 2): 459 pg/mL
- TNF-alpha Conc (TNF-alpha; LPS 1 ng/ml, 3 μM MMF, Donor 1): 631 pg/mL
- TNF-alpha Conc (TNF-alpha; LPS 1 ng/ml, 3 μM MMF, Donor 2): 650 pg/mL
- TNF-alpha Conc (TNF-alpha; [2]): 1624 pg/mL
- TNF-alpha Conc (TNF-alpha; [3]): 2559 pg/mL
- TNF-alpha Conc (TNF-alpha; [4]): 1787 pg/mL
- TNF-alpha Conc (TNF-alpha; [5]): 3289 pg/mL
- TNF-alpha Conc (TNF-alpha; [6]): 250 pg/mL
- TNF-alpha Conc (TNF-alpha; [7]): 711 pg/mL
- TNF-alpha Conc (TNF-alpha; [8]): 20 pg/mL
- TNF-alpha Conc (TNF-alpha; [9]): 96 pg/mL
- TNF-alpha Conc (TNF-alpha; LPS 1 ng/ml, 1 mM MMF, Donor 1): 0 pg/mL
- TNF-alpha Conc (TNF-alpha; LPS 1 ng/ml, 1 mM MMF, Donor 2): 11 pg/mL
- TNF-alpha Conc (TNF-alpha; LPS 1 ng/ml, 3 mM MMF, Donor 1): 0 pg/mL
- TNF-alpha Conc (TNF-alpha; LPS 1 ng/ml, 3 mM MMF, Donor 2): 0 pg/mL
- effect on TNF-alpha secretion (TNF-alpha; LPS-stimulated monocytes): co-stimulatory
- effect on TNF-alpha secretion (TNF-alpha; [10]): induced
- TNF-alpha Conc (TNF-alpha; [11]): 29 pg/mL
- TNF-alpha Conc (TNF-alpha; [12]): 13 pg/mL
- TNF-alpha Conc (TNF-alpha; [13]): 38 pg/mL
- TNF-alpha Conc (TNF-alpha; [14]): 10 pg/mL
- TNF-alpha Conc (TNF-alpha; [15]): 570 pg/mL
- TNF-alpha Conc (TNF-alpha; [16]): 47 pg/mL
- TNF-alpha Conc (TNF-alpha; [17]): 1343 pg/mL
- TNF-alpha Conc (TNF-alpha; [18]): 682 pg/mL
- TNF-alpha Conc (TNF-alpha; [19]): 313 pg/mL
- TNF-alpha Conc (TNF-alpha; [20]): 236 pg/mL
- TNF-alpha Conc (TNF-alpha; [21]): 3 pg/mL
- TNF-alpha Conc (TNF-alpha; [22]): 12 pg/mL
- TNF-alpha Conc (TNF-alpha; [23]): 0 pg/mL
- TNF-alpha Conc (TNF-alpha; [24]): 3 pg/mL
- TNF-alpha Conc (TNF-alpha; [25]): 0 pg/mL
- TNF-alpha Conc (TNF-alpha; [26]): 0 pg/mL
- pH-value of the solution [1]: 9-10
- IL-8 Conc (IL-8; LPS 1 ng/ml, 1 μM MMF, Donor 1): 35264 pg/mL
- IL-8 Conc (IL-8; LPS 1 ng/ml, 1 μM MMF, Donor 2): 25146 pg/mL
- IL-8 Conc (IL-8; LPS 1 ng/ml, 3 μM MMF, Donor 1): 26255 pg/mL
- IL-8 Conc (IL-8; LPS 1 ng/ml, 3 μM MMF, Donor 2): 24672 pg/mL
- IL-8 Conc (IL-8; [2]): 1259306 pg/mL
- IL-8 Conc (IL-8; [3]): 70691 pg/mL
- IL-8 Conc (IL-8; [4]): 1369127 pg/mL
- IL-8 Conc (IL-8; [5]): 1357587 pg/mL
- IL-8 Conc (IL-8; [6]): 80524 pg/mL
- IL-8 Conc (IL-8; [7]): 1285660 pg/mL
- IL-8 Conc (IL-8; [8]): 7135 pg/mL
- IL-8 Conc (IL-8; [9]): 31370 pg/mL
- IL-8 Conc (IL-8; LPS 1 ng/ml, 1 mM MMF, Donor 1): 558 pg/mL
- IL-8 Conc (IL-8; LPS 1 ng/ml, 1 mM MMF, Donor 2): 2825 pg/mL
- IL-8 Conc (IL-8; LPS 1 ng/ml, 3 mM MMF, Donor 1): 86 pg/mL
- IL-8 Conc (IL-8; LPS 1 ng/ml, 3 mM MMF, Donor 2): 424 pg/mL
- effect on IL-8 secretion (IL-8; LPS stimulated monocytes): did not induce a co-stimulation
- IL-8 Conc (IL-8; [11]): 138285 pg/mL
- IL-8 Conc (IL-8; [12]): 241352 pg/mL
- IL-8 Conc (IL-8; [13]): 219130 pg/mL
- IL-8 Conc (IL-8; [14]): 349450 pg/mL
- IL-8 Conc (IL-8; [15]): 249798 pg/mL
- IL-8 Conc (IL-8; [16]): 446267 pg/mL
- IL-8 Conc (IL-8; [17]): 179340 pg/mL
- IL-8 Conc (IL-8; [18]): 315447 pg/mL
- IL-8 Conc (IL-8; [19]): 60312 pg/mL
- IL-8 Conc (IL-8; [20]): 153980 pg/mL
- IL-8 Conc (IL-8; [21]): 12354 pg/mL
- IL-8 Conc (IL-8; [22]): 31040 pg/mL
- IL-8 Conc (IL-8; [23]): 1696 pg/mL
- IL-8 Conc (IL-8; [24]): 5363 pg/mL
- IL-8 Conc (IL-8; [25]): 176 pg/mL
- IL-8 Conc (IL-8; [26]): 577 pg/mL
- effect on IL-8 secretion (IL-8; unstimulated monocytes): did induce an induction
- IL-10 Conc (IL-10; LPS 1 ng/ml, 1 μM MMF, Donor 1): 11 pg/mL
- IL-10 Conc (IL-10; LPS 1 ng/ml, 1 μM MMF, Donor 2): 11 pg/mL
- IL-10 Conc (IL-10; LPS 1 ng/ml, 3 μM MMF, Donor 1): 13 pg/mL
- IL-10 Conc (IL-10; LPS 1 ng/ml, 3 μM MMF, Donor 2): 5 pg/mL
- IL-10 Conc (IL-10; [2]): 106 pg/mL
- IL-10 Conc (IL-10; [3]): 13 pg/mL
- IL-10 Conc (IL-10; [4]): 62 pg/mL
- IL-10 Conc (IL-10; [5]): 32 pg/mL
- IL-10 Conc (IL-10; [6]): 7 pg/mL
- IL-10 Conc (IL-10; [7]): 0 pg/mL
- IL-10 Conc (IL-10; [8]): 0 pg/mL
- IL-10 Conc (IL-10; [9]): 0 pg/mL
- IL-10 Conc (IL-10; LPS 1 ng/ml, 1 mM MMF, Donor 1): 2 pg/mL
- IL-10 Conc (IL-10; LPS 1 ng/ml, 1 mM MMF, Donor 2): 0 pg/mL
- IL-10 Conc (IL-10; LPS 1 ng/ml, 3 mM MMF, Donor 1): 1 pg/mL
- IL-10 Conc (IL-10; LPS 1 ng/ml, 3 mM MMF, Donor 2): 0 pg/mL
- effect on IL-10 secretion (IL-10; LPS-stimulated monocytes): co-induced
- effect on IL-10 secretion (IL-10; [10]): induced
- IL-10 Conc (IL-10; [11]): 775 pg/mL
- IL-10 Conc (IL-10; [12]): 1125 pg/mL
- IL-10 Conc (IL-10; [13]): 886 pg/mL
- IL-10 Conc (IL-10; [14]): 1385 pg/mL
- IL-10 Conc (IL-10; [15]): 1026 pg/mL
- IL-10 Conc (IL-10; [16]): 2035 pg/mL
- IL-10 Conc (IL-10; [17]): 351 pg/mL
- IL-10 Conc (IL-10; [18]): 800 pg/mL
- IL-10 Conc (IL-10; [19]): 7 pg/mL
- IL-10 Conc (IL-10; [20]): 40 pg/mL
- IL-10 Conc (IL-10; [21]): 0 pg/mL
- IL-10 Conc (IL-10; [22]): 0 pg/mL
- IL-10 Conc (IL-10; [23]): 0 pg/mL
- IL-10 Conc (IL-10; [24]): 0 pg/mL
- IL-10 Conc (IL-10; [25]): 0 pg/mL
- IL-10 Conc (IL-10; [26]): 0 pg/mL
